Series [1] relates to healthy adult mongrel dogs. In words: Protocol M: hemodynamics in anesthetized open-chest dogs, systolic arterial pressure held constant. It is filed as in vivo. As to the method: The experimental work was carried out as follows: Twelve healthy adult mongrel dogs (20-30 kg) of both sexes were anesthetized with intravenous sodium pentobarbital (25 mg/kg). A left thoractomy was performed through the fifth intercostal space. Catheters were placed to record left atrial, left ventricular and aortic pressures. Descending aortic blood flow was measured with an electromagnetic flowmeter. Heart rate (HR) was calculated using electocardiographic recording, lead aVF. All parameters were recorded on a Gould polygraph. The dogs were randomly assigned either to the control or to the treated group. Six of the dogs were in the control group and these dogs were infused with a placebo, namely the vehicle used for the drug tested. […] Berberine (as the hydrochloride salt) was administered to six anesthesized dogs (barbiturate). The dose was 0.7 mg/kg/min. intravenously infused durng 5 minutes. This dose was repeated after 45 minutes. Systolic arterial pressure was maintained at a constant rate using a reservoir full of blood under constant pressure connected to the femoral artery. Whenever the arterial pressure was not maintained constant in the work reported (and allowed to drop) appropriate reference is made herein to that fact. Systemic arterial pressure was maintained at a constant rate in order to obtain accurate dP/dt since this parameter is of extreme importance in these studies. However, as a consequence, the vascular peripheral resistence, when described as a function of mean aortic pressure, was higher than if the pressure would be allowed to fall with the administration of the compound. Therefore, the reduction calculated total peripheral resistence is underestimated. Also dP/dt is less increased when bradycardia (lower heart rate) occurs and since heart rate was allowed to fall (which is the effect of the drug), the increase in dP/dt reported here is actually underestimated as compared to preparations in which heart rate would have been maintained constant. In Tables I to IX the results of these experiments are presented. The first two lines presents the studied parameter in absolute values, the third line representing the "t" values used in Student's t test for group observation, between the treated and control groups. The fourth line presents the level of significance. The next four lines give the values as changes (Δ) from the value before treatment to the value after treatment. The third set of values represent the changes in percent. The last two sets of two lines represent the paired t-test values and the derived p values obtained by analyzing the data from before the infusion of the drug (last set of two lines) or the placebo (next to last set of two lines), in the subsequent time interval (i.e. after infusion). Therefore, each dog serves as his own control, thus increasing the statistical value of the tests. […] Thus, the calculated peripheral resistance increased by 18% (P <0.02).

The subject of a further series is dog. The experiment in a line: Protocol M simile: high or repetitive infusions in single dogs. It is filed as in vivo. As to the method:
It is noted that the dP/dt increased by 350% after the eighth dose and dF/dt by 450%.
In one dog using protocol M simile, 240 mg/Kg of berberine HCI was administered and dP/dt increased by 75%, aortic flow by 67%, heart rate fell from 150 to 114 beats/min., diastolic aortic pressure fell from 92 to 67 mmHg, and left atrial pressure fell from 8.5 to 7.5 mmHg.
When this type of experiment was repeated with tetrahydropalmatine, a first dose of 3.5 mg/Kg was given without maintaining the pressure constant and arterial pressure fell from 142/115 to 118/90 mmHg. When the second infusion was given with constant pressure, dP/dt increased by 17%.

Series [2] relates to dogs. In words: Protocol RK, single dose: dose response on systemic arterial pressure and heart rate. It is filed as in vivo. The settings on record: for average fall in mean arterial pressure: 90 minutes after injection. As to the method: In 4 groups of dogs instrumented as in the last series of experiments (Protocol RK) the effects of increasing dose response on systemic arterial pressure was examined. The only difference from that protocol was that only one dose of berberine (as opposed to two) was administered.
The effects on the measured parameters is dose responsive. In four groups of dogs, the changes in blood pressure were analyzed. The dosage administered was7.5,15,30 and 70 mg/Kg. It was observed that generally blood pressure drop was most marked in the first 5 minutes. After 90 minutes following the injection (when the experiment wad discontinued), the average fall in mean arterial pressure in the group which received 15 mg/Kg was 19 mmHg; in the group that received 30 mg/Kg it was 37 mmHg and in the group that received 70 mg/Kg it was 63 mmHg.

In series [3] the test system is dogs. In words: Three week toxicology study in 12 dogs. It is filed as in vivo. As to conditions: 0.2 mg/kg/min for 60 minutes twice daily for 3 weeks.
In series [4] the test system is anesthetized closed chest dogs. The experiment in a line: Association of ouabain and berberine on contractility (LV dP/dt), constant systolic pressure. It is filed as in vivo. As to conditions: for increase of LV dP/dt, of the initial LV dP/dt: berberine 0.7 mg/Kg/min after ouabain; for increases in dP/dt: only berberine 0.7 mg/Kg/min without digitalis. As to the method: In anesthetized closed chest dogs the systolic arterial pressure was maintained constant with a reservoir full of heparinized blood (as in protocol "M" and "Z" described above) and a "pigtail" and Millar catheter were introduced into the left ventricular cavity (as in protocol "Z" and "HV", described above). All data was recorded on 8 channel polygraph (Gould Instruments) with a paper speed of 200 mm/s when necessary and at 2 mm/s constantly.

Series [5] has as its system dogs. In words: Arrhythmias produced by intravenous infusion of aconitine. It is filed as in vivo. As to the method:
To examine the effects of berberine on arrhythmias produced by intravenous infusion of aconitine in fifteen dogs after development of VEA, of at least 50% of the beats or more, the dogs were given berberine intravenously as a bolus (1-5 mg/Kg) or 5% dextrose in water.

A short description of another series: Solubility. It is filed as physicochemical. As to the method: The solubility of berberine and other similar compounds of the invention may be altered by changing the pH of the solution having each compound its optimum of pH as far as solubility.
The protoberine alkaloids are administered in the manner most appropriate under the circumstances. Administration may be oral, sublingual, subcutaneous, transdermal or intramuscular injection. The compounds may be administered by intravenous route, parenterally.

The next series in a line: LD50. The settings on record: cat, in vivo.
The subject of series [6] is dogs with acute left ventricular failure. In words: MUGR ejection fraction in dogs with acute left ventricular failure after coronary embolization. It is filed as in vivo. The settings on record: another dog, 0.2 mg/Kg/min.
[7] abbreviates: one dog, after the eighth dose, 0.7 mg/kg/min repeated up to 56 mg/Kg.

The structures appear in SMILES notation.

What is called LD50 is the dose at which mortality reaches 50%. The low end stands for a more toxic substance, the high end for a less toxic substance. On to `COc1ccc2cc3[n+](cc2c1OC)CCc1cc2c(cc1-3)OCO2` [berberine], for which the “diastolic aortic pressure (DAP)” value in [1] (after treatment, from 84 before) is 62 mmHg. In [1] (descending aorta), the “increase in peak blood flow velocity” value is around 50%. Also, in series [1] (dog, in vivo), the “arrhythmias during the experimental period” value was “did not develop any type of arrhythmias”. In addition, in series [1] (dog, in vivo), the “drop of DAP” value is on record as 20 mmHg. Besides, in series [1] (dog, in vivo), the “reduction in HR” value is on record as 9 beats/min. Besides, in series [1] (end of experiment), the “difference in dP/dt between the control group and the berberine-treated group” value worked out at 50%. Also, the “dP/dt maximum of the left ventrical” value in [1] (end of experiment, 0.7 mg/kg/min i.v. 5 min, repeated after 45 min, control 2009 ± 132) worked out at 2974 ± 121 mmHg/s. Also, in [1] (first vs last column of Table III), the “increase in the acceleration of blood flow (dF/dt)” value is given as around 65%. Further, the “mean left artrial pressure (LAP)” value in [1] (initial 1 or 2 mmHg) is recorded as “no change”. For the same compound, the “left ventricular end diastolic pressure (LVEDP)” value in [1] (normal, averaging 3 mmHg) is reported as “no change”. The “increase of dF/dt” value is listed as “at least 50%” in [1] (summary statement) and 450% with dog (setting [7]). For the same compound, the “increase of dP/dt” value was “at least 50%” in series [1] (summary statement); 75% with dog (one dog, 240 mg/Kg); 350% with dog (setting [7]). For the same compound, the arrhythmias result in the series with dog (one dog, 240 mg/Kg) is listed as “No arrhythmias were noted”; in the series on dog (one dog, up to 56 mg/Kg), “No arrhythmias were observed”. The “increase of aortic flow” value in the series with dog (one dog, 240 mg/Kg) worked out at 67%. The left atrial pressure in the series on dog (one dog, 240 mg/Kg, from 8.5) came to 7.5 mmHg. In the series on dog (one dog, 240 mg/Kg, from 92), this compound gave a diastolic aortic pressure of 67 mmHg. Moreover, the heart rate with dog (one dog, 240 mg/Kg, from 150) stood at 114 beats/min. For the same compound, the “decrease of heart rate” value in the series with dogs [2] (7.5 mg/Kg) came out at 20 beats/min; in the series with dogs [2] (15 mg/Kg), 16 beats/min; in the series with dogs [2] (35 mg/Kg) it was 40 beats/min; with dogs [2] (70 mg/Kg), 103 beats/min. Besides, the “average fall in mean arterial pressure” value with dogs [2] (15 mg/Kg) is given as 19 mmHg; in the series with dogs [2] (30 mg/Kg), 37 mmHg; in the series on dogs [2] (70 mg/Kg) it was 63 mmHg. For the same compound, the primary arrhythmias entry in the series on dogs [2] (7.5 to 70 mg/Kg) is recorded as “No primary arrhythmias were obtained”. The “side effects (electrolytes, heptatic function, renal function, proteins, coagulation, blood cells, platelet count)” value in the series with dogs [3] is given as “no side effects were observed”. For the same compound, the tissues at post-mortem entry in the series with dogs [3] is “normal histologically”. The “increase of LV dP/dt, of the initial LV dP/dt” value in [4] (5 minutes) stood at 87±10%; in series [4] (10 minutes), 82±13%; in [4] (15 minutes), 87±13%; in series [4] (20 minutes), 95±16%; in series [4] (25 minutes), 96±16%; in series [4] (30 minutes), 94±14%. Further, the “combined effect with ouabain on contractility” value in [4] (dog, in vivo) is on record as “more than additive but synergistic”. The “increases in dP/dt” value in series [4] (5 minutes) is recorded as 30±4%; in series [4] (10 minutes), 36±3%; in series [4] (15 minutes), 39±3%; in [4] (20 minutes) it was 42±5%; in series [4] (25 minutes), 39±5%; in [4] (30 minutes), 40±7%. Besides, the “dogs with regression of the arrhythmias to normal sinus or supraventricular rhythm” value with dogs [5] (intravenous bolus 1-5 mg/Kg after VEA of at least 50% of the beats, controls 20%) was 78%. In addition, the ventricular fibrillation entry in the series with dogs [5] (two cases) is “ventricular fibrillation reverted to normal sinus rhythm”. Moreover, the “solubility as a function of pH” value in “Solubility” is “increases when pH is lowered towards acidity”. In addition, in the series “Solubility”, the “solubility in sugar solutions” value is given as “soluble (among others) in sugar solutions”. The same compound displayed an LD50 in the series “LD50” of around 55 mg/kg. Further, the EF in series [6] (at 20) and in series [6] (at 30) was 55% throughout.

With `COc1ccc2cc3[n+](cc2c1O)CCc1cc2c(cc1-3)OCO2` [berberrubine], the “result of the corresponding Protocol M experiments (dP/dt, peak blood flow, acceleration of flow, heart rate, diastolic pressure)” value in [1] (dog, in vivo) is on record as “like results are obtained”. The “result in the association with ouabain” value in [4] (dog, in vivo) was “perform in the same manner”.

Turning to `COc1cc2c(cc1O)C[C@H]1c3cc(O)c(OC)cc3CCN1C2` [coreximine], the “result of the corresponding Protocol M experiments (dP/dt, peak blood flow, acceleration of flow, heart rate, diastolic pressure)” value in [1] (dog, in vivo) is recorded as “like results are obtained”. Besides, the “result when the experiments are repeated” value with dog (dog, in vivo) is reported as “comparable results are obtained”. Besides, in [4] (dog, in vivo), the “result in the association with ouabain” value is “perform in the same manner”.

The record behind these values is patent publication EP0108147B1, “Use of a protoberberine alkaloid and composition containing same” (MAROKO, Peter R., priority 1982, dated 1983).
